In general, Ki refers to the dissociation constant of the complex between target and ligand, obtained from inhibition or displacement. A higher Ki goes with a looser hold on the target.

The nature of this experiment: Muscarinic acetylcholine receptor binding affinity was determined using [3H]NMS for NG108-15 neuroblastoma cells.
`CN(CC#CCN1CCCC1)C(=O)CCCCCCCNC(=O)OC(C)(C)C` showed an inhibitory constant (Ki) of 1900 nM. For `CC(=O)N(C)CC#CCN1CCCC1` the value was 4500 nM; for `CN(CC#CCN1CCCC1)C(=O)CCCCCCCN`, 700 nM; for `CN(CC#CCN1CCCC1)C(=O)CCCCCCN`, 3100 nM.

The values are drawn from BindingDB's records for doi:10.1021/jm00164a044 (Niddk, 1990).
